Values quoted from earlier work as cited in patent US11459499B2, “Amidoamine-based gemini surfactant containing ethoxylate units and a method for oil recovery” (King Fahd University of Petroleum and Minerals, priority 2018, dated 2022).
Like-named read-outs stand apart in the source and are kept apart here.

Row | Compound | reported CMC (literature (Lu et al., 2012)) | reported CMC (literature (Hoque et al., 2012)) [mM]
1 | CCCCCCCCCCCC[N+](C)(C)CC[N+](C)(C)CCCCCCCCCCCC.[Br-].[Br-] [12-2-12] | about 5.5×10^−2 wt. % | –
2 | CCCCCCCCCCCC[N+](C)(C)C.[Br-] [DTAB, dodecyltrimethylammonium bromide] | 5.0×10^−1 wt. % | 16.1
